Assays:
[1] = tested on: mixed bacterial population previously isolated from an infected commercial corn mash; test: Low Dry Solids fermentation of 1% infected liquefied corn mash with AA13 polypeptides, HPLC analysis (Example 2); format: cell-based; conditions: after 20 hrs of Low Dry Solids fermentation of corn mash; increasing doses; vs control
Protocol: Clean liquefied corn mash: Clean corn mash was prepared in our laboratories under typical liquefaction conditions using a blend of AA369 and Protease Pfu. […] Substrate is stored frozen and thawed before use.
Infected liquefied corn mash: Clean corn mash was inoculated with a mixed bacterial population previously isolated from an infected commercial corn mash. The infected mash was incubated with the inoculant for up to 24 hours at approximately 32° C. […] Substrate is frozen in 20% glycerol solution and then thawed before use.
1% Infected liquefied mash: Per every 100 g of “clean” mash, 1 g of infected mash is added and mixed thoroughly.
Low Dry Solids fermentation. 1% Infected Mash was diluted to 20% dry solids. 200 ppm target urea was added as an exogenous nitrogen source for yeast. Commercial glucoamylase GSA, was used at a dose of 0.6 AGU/g-dry solids. Yeast was pitched at a rate of 0.25 g/L. Experimental enzymes were dosed between 2 ppm and 100 ppm. Dosage were against dry solids.
Positive control: Penicillin was used at 25 ppm.
Negative control: No treatment was added.
Yeast, enzymes, and any additional tap water was added at approximately the same time to start fermentation. […]
Fermentations were sampled at various time points to examine soluble carbohydrates and organic acids. […] Analytes were quantified against internal standards. […]
Data was analyzed using SAS JMP statistical software.

[2] = tested on: multi-strain LAB culture; test: SSF of control mash with 1% w/w infected mash, AA13 candidates, HPLC of organic acids and ethanol (Example 3); format: cell-based; conditions: SSF 32° C. up to 24 hours, 20% DS; for % delta Ethanol / % delta Lactic Acid: vs No Treatment
Protocol: A control mash was prepared in-house with an industry relevant blend of AA369 and Protease Pfu using a Lab-O-Mat incubator for 2 hours at 85° C. and 36% DS to simulate typical industry conditions. The mash was then frozen prior to use in SSF. An infected mash was prepared by infecting the control mash with a multi-strain LAB culture grown in MRS. The bacteria in control mash was incubated overnight, and then frozen with 20% glycerol. For this experiment, 1% weight/weight of the infected mash was mixed into the control mash. This mimics an infection event at a large-scale ethanol facility. For SSF, all mash was prepared with 1000 ppm of urea to aid with yeast fermentation. All treatments were dosed with a baseline commercial glucoamylase GSA, while AA13 candidates were dosed at either 10 ug/g-DS or 50 ug/g-DS. SSF was performed at 5 g scale with 10 uL/g rehydrated Ethanol Red yeast at 32° C. for up to 24 hours at 20% DS. At the end of fermentation, samples were deactivated with 50 uL of 40% sulfuric acid and then centrifuged. The supernatant was filtered through a 0.2 μm filter and then measured for soluble carbohydrates and organic acids using an ion-exchange H-column on HPLC.

Aspergillus terreus: AA13 polypeptide from Aspergillus terreus having the amino acid sequence of SEQ ID NO: 119
lactic acid titers, dose response (FIG. 5) [1]: reduced lactic acid titers compared to the control | average Ethanol ([2]; AA13 dose 10 ug/g-DS): 77.1 g/L | average Lactic Acid ([2]; AA13 dose 10 ug/g-DS): 3.4 g/L | % delta Ethanol ([2]; AA13 dose 10 ug/g-DS): −0.7% | % delta Lactic Acid ([2]; AA13 dose 10 ug/g-DS): 1.3% | average Ethanol ([2]; AA13 dose 50 ug/g-DS): 78.0 g/L | average Lactic Acid ([2]; AA13 dose 50 ug/g-DS): 3.4 g/L | % delta Ethanol ([2]; AA13 dose 50 ug/g-DS): 0.4% | % delta Lactic Acid ([2]; AA13 dose 50 ug/g-DS): 1.3%

— patent US11795481B2, “Processes for producing a fermentation product” (Novozymes A/S, priority 2017, dated 2023)
